Experimental data as given in PMC9916163, “Evaluation of the Cytotoxic Effect of Pd2Spm against Prostate Cancer through Vibrational Microspectroscopies” (International Journal of Molecular Sciences, 2023).
Where two headings read alike, the source gives them in different places.

How the values were obtained:
[1] = test system: PC-3 cell line; experiment: MTT cytotoxicity assay, PC-3 cells; format: cell-based, human; details: prostate cancer cells, read-out: Half maximal inhibitory concentration (IC50) PC-3
Experimental: (§1) The human prostate cancer (PC-3 and LNCaP) and non-tumorigenic (PNT-2) cell lines were obtained from the ECCAC Culture Collections and supplied by Sigma-Aldrich Chemical S.A. (Sintra, Portugal). They were cultured as monolayers, at 37 °C, in a humidified atmosphere of 5% CO2. The cultures were maintained in RPMI-1640 culture medium, supplemented with 10% (v/v) heat-inactivated FBS and 1% (v/v) penicillin/streptomycin. The cells were subcultured at 80% confluence, using 0.05% trypsin-EDTA (1×) in PBS.
(§2) For all cell lines (PC-3, LNCaP and PNT-2), cell cultures were established in 96-well plates (100 µL/well) at a density of 3 × 10^4 cells/cm^2, and were allowed to attach for 24 h. Triplicates were treated for different incubation periods (three independent experiments) with a range of concentrations between 2 and 32 µM of the tested compounds (cisplatin and Pd2Spm). According to the population doubling time for all cell lines (ca. 24 h), 24, 48, and 72 h timepoints after drug administration were chosen.
(§3) In order to evaluate cell viability, the MTT assay was used. Briefly, at each time-point, the growth media was removed, cells were washed with PBS and MTT solution (2.5 mg/mL) was added to each well (100 µL). After 3 h of incubation at 37 °C, the formazan crystals were solubilized in DMSO (100 µL), and the absorbance was measured at 570 nm.
(§4) Cells viability data results are expressed as mean ± standard error of the mean (SEM) and compared with non-treated controls. Statistical analysis was carried out through one-way ANOVA followed by Tukey’s multiple comparison test. A p-value < 0.05 was considered statistically significant.

[2] = test system: PC-3; set-up: method as in PMID 17541592; details: 72 h, SRB method; read-out: Value previously reported (IC50) PC-3; cited from earlier work
[3] = test system: PNT-2; set-up: method as in PMID 34277574; details: 96 h, MTT method; read-out: Value previously reported (IC50) PNT-2; cited from earlier work
[4] = test system: LNCaP cell line; experiment: MTT cytotoxicity assay, LNCaP cells; format: cell-based, human; details: prostate cancer cells, read-out: Half maximal inhibitory concentration (IC50) LNCaP
Experimental: as §1, §2, §3, §4

[5] = test system: PNT-2 cell line; experiment: MTT cytotoxicity assay, PNT-2 cells; format: cell-based, human; details: prostate non-cancer cells, read-out: Half maximal inhibitory concentration (IC50) PNT-2
Experimental: as §1, §2
In order to evaluate cell viability, the MTT assay was used. […] After 3 h of incubation at 37 °C, the formazan crystals were solubilized in DMSO (100 µL), and the absorbance was measured at 570 nm.
Cells viability data results are expressed as mean ± standard error of the mean (SEM) and compared with non-treated controls. […]

[6] = test system: LNCaP; set-up: method as in PMID 17541592; details: 48 h, SRB method; read-out: Value previously reported (IC50) LNCaP; cited from earlier work
[7] = test system: PC-3; set-up: method as in PMID 24366574; details: 48 h, MTT method; read-out: Value previously reported (IC50) PC-3; cited from earlier work

N.N.[Cl][Pt][Cl] [Cisplatin, cis-dichlorodiammine platinum(II)]
IC50 ([1]; 24 h incubation): 25.6 µM
IC50 ([1]; 48 h incubation): 3 µM
IC50 ([1]; 72 h incubation): 0.7 µM
IC50 [2]: 1 µM
IC50 [3]: 8.5 µM
IC50 ([4]; 24 h incubation): 13.6 µM
IC50 ([4]; 48 h incubation): 7.3 µM
IC50 ([4]; 72 h incubation): 2.7 µM
IC50 ([5]; 48 h incubation): 5.2 µM
IC50 ([5]; 72 h incubation): 2.4 µM
IC50 [6]: 3.7 µM
IC50 [7]: 10.6 µM
